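Five compound concentrations were applied to cells in 96-well plates for 48 hours; endpoints were derived by simple linear interpolation of the resulting dose-response curve. GI50 marks 50% less growth. At the TGI there is no net growth.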
Legend:
Assay in all cases: NCI-60 cell line screen, 48 h
[1] = system: 786-0 renal
[2] = system: A498 renal
[3] = system: A549 NSCLC
[4] = system: ACHN renal
[5] = system: BT-549 breast
[6] = system: CAKI-1 renal
[7] = system: CCRF-CEM leukemia
[8] = system: COLO 205 colon
[9] = system: DU-145 prostate
[10] = system: EKVX NSCLC
[11] = system: HCC-2998 colon
[12] = system: HCT-116 colon
[13] = system: HCT-15 colon
[14] = system: HL-60(TB) leukemia
[15] = system: HOP-62 NSCLC
[16] = system: HOP-92 NSCLC
[17] = system: HS 578T breast
[18] = system: HT29 colon
[19] = system: IGROV1 ovarian
[20] = system: K-562 leukemia
[21] = system: KM12 colon
[22] = system: LOX IMVI melanoma
[23] = system: M14 melanoma
[24] = system: MALME-3M melanoma
[25] = system: MCF7 breast
[26] = system: MDA-MB-231 breast
[27] = system: MDA-MB-468 breast
[28] = system: MOLT-4 leukemia
[29] = system: NCI-H226 lung
[30] = system: NCI-H23 lung
[31] = system: NCI-H460 lung
[32] = system: NCI-H522 lung
[33] = system: NCI/ADR-RES ovarian
[34] = system: OVCAR-4 ovarian
[35] = system: OVCAR-5 ovarian
[36] = system: OVCAR-8 ovarian
[37] = system: PC-3 prostate
[38] = system: RPMI-8226 leukemia
[39] = system: RXF 393 renal
[40] = system: SF-268 CNS
[41] = system: SF-295 CNS
[42] = system: SF-539 CNS
[43] = system: SK-MEL-2 melanoma
[44] = system: SK-MEL-28 melanoma
[45] = system: SK-MEL-5 melanoma
[46] = system: SK-OV-3 ovarian
[47] = system: SN12C renal
[48] = system: SNB-19 CNS
[49] = system: SNB-75 CNS
[50] = system: SR leukemia
[51] = system: SW-620 colon
[52] = system: T-47D breast
[53] = system: TK-10 renal
[54] = system: U251 CNS
[55] = system: UACC-257 melanoma
[56] = system: UACC-62 melanoma
[57] = system: UO-31 renal

N#Cc1ccc(/C=N/NC(=O)c2[nH]c3ccc(Br)cc3c2-c2ccccc2)o1
GI50 [1]: 308 nM | TGI [1]: 10100 nM | GI50 [2]: 15600 nM | TGI [2]: 42300 nM | GI50 [3]: 383 nM | TGI [3]: 14000 nM | GI50 [4]: 420 nM | TGI [4]: 13400 nM | GI50 [5]: 243 nM | TGI [5]: 3220 nM | GI50 [6]: 427 nM | TGI [6]: 16200 nM | GI50 [7]: 295 nM | TGI [7]: > 54500 nM | GI50 [8]: 198 nM | TGI [8]: 371 nM | GI50 [9]: 379 nM | TGI [9]: 14800 nM | GI50 [10]: 496 nM | TGI [10]: 27300 nM | GI50 [11]: 278 nM | TGI [11]: 2620 nM | GI50 [12]: 198 nM | TGI [12]: 11700 nM | GI50 [13]: 333 nM | TGI [13]: 13700 nM | GI50 [14]: 196 nM | TGI [14]: 2780 nM | GI50 [15]: 350 nM | TGI [15]: 13500 nM | GI50 [16]: 2120 nM | TGI [16]: 18200 nM | GI50 [17]: 313 nM | TGI [17]: 20100 nM | GI50 [18]: 204 nM | TGI [18]: 2520 nM | GI50 [19]: 404 nM | TGI [19]: 16600 nM | GI50 [20]: 128 nM | TGI [20]: 15000 nM | GI50 [21]: 315 nM | TGI [21]: 11300 nM | GI50 [22]: 124 nM | TGI [22]: 11600 nM | GI50 [23]: 324 nM | TGI [23]: 22700 nM | GI50 [24]: 434 nM | TGI [24]: 22200 nM | GI50 [25]: 306 nM | TGI [25]: 16700 nM | GI50 [26]: 246 nM | TGI [26]: 655 nM | GI50 [27]: 318 nM | TGI [27]: 14100 nM | GI50 [28]: 352 nM | TGI [28]: 32700 nM | GI50 [29]: 1110 nM | TGI [29]: 27500 nM | GI50 [30]: 338 nM | TGI [30]: 14000 nM | GI50 [31]: 347 nM | TGI [31]: 10700 nM | GI50 [32]: 91.4 nM | TGI [32]: 340 nM | GI50 [33]: 136 nM | TGI [33]: 408 nM | GI50 [34]: 1100 nM | TGI [34]: 25300 nM | GI50 [35]: 406 nM | TGI [35]: 21100 nM | GI50 [36]: 226 nM | TGI [36]: 624 nM | GI50 [37]: 482 nM | TGI [37]: 19700 nM | GI50 [38]: 369 nM | TGI [38]: 27900 nM | GI50 [39]: 486 nM | TGI [39]: 14700 nM | GI50 [40]: 611 nM | TGI [40]: 20300 nM | GI50 [41]: 321 nM | TGI [41]: 13300 nM | GI50 [42]: 212 nM | TGI [42]: 527 nM | GI50 [43]: 294 nM | TGI [43]: 13500 nM | GI50 [44]: 806 nM | TGI [44]: 21100 nM | GI50 [45]: 272 nM | TGI [45]: 770 nM | GI50 [46]: 513 nM | TGI [46]: 22500 nM | GI50 [47]: 389 nM | TGI [47]: 12600 nM | GI50 [48]: 394 nM | TGI [48]: 17000 nM | GI50 [49]: 369 nM | TGI [49]: 14600 nM | GI50 [50]: 152 nM | GI50 [51]: 421 nM | TGI [51]: 20100 nM | GI50 [52]: 4660 nM | TGI [52]: 32900 nM | GI50 [53]: 7320 nM | TGI [53]: 26900 nM | GI50 [54]: 330 nM | TGI [54]: 12300 nM | GI50 [55]: 1190 nM | TGI [55]: 19700 nM | GI50 [56]: 392 nM | TGI [56]: 17900 nM | GI50 [57]: 454 nM | TGI [57]: 15400 nM

Reference: PubChem BioAssay (NCI)
